Assays:
[1] = target: human STING (WT) (Homo sapiens (Human), UniProt Q86WV6, H232R); assay: Surface plasmon resonance (SPR), STING (WT); assay type: binding; conditions: biotinylated STING on streptavidin chip, 8° C.
Method: Biophysical experiments were performed with three different recombinant human STING protein variants designated according to allelic nomenclature of Yi et al., (2013). Codon optimized DNA sequences (for expression in Escherichia coli) encoding amino acid residues 149 to 345 (Swiss Prot Q86WV6) of human STING (WT), human STING (HAQ) and human STING (R232H) were synthesised by GenScript USA Inc (Piscataway, New Jersey, USA). These were ligated into a modified pET43a E. coli expression vector designed to encode N-terminal His tag followed by tobacco etch virus protease (TEV) cleavage site and a STING gene sequence. The resulting protein sequences for the three allelic variants are listed below:
Binding interactions of ligands with STING proteins were quantified using Surface Plasmon Resonance (SPR) with a minimally biotinylated STING protein immobilized on a streptavidin chip surface. […] Minimal biotinylation of purified huSTING proteins was performed using a previously described methodology (Chhabra 2012). Briefly, approximately 20 nmol of recombinant STING protein in 1×TBS buffer (25 mM Tris-HCl, pH 7.5, 150 mM NaCl, 5 mM DTT) was mixed with of EZ-Link™ Sulfo-NHS-LC-LC-Biotin (Thermofisher Scientific, cat #21338) at a molar ratio of 1 to 0.6 and incubated on ice for 2 hours. To remove any unreacted biotin reagent, protein/biotin mixture was passed through a Superdex 75 (10/300 GL) column equilibrated with 10 mM HEPES, pH7.4, 150 mM NaCl, 5 mM DTT, 5%[v/v] glycerol. A protein peak containing biotinylated huSTING protein was collected and stored in aliquots at −80° C.
Streptavidin was simultaneously immobilized in all four channels of a CM5 sensor chip docked in a Biacore instrument (either Biacore S200 or Biacore T200, GE Healthcare) as described previously (Zender 2013). Minimally biotinylated STING protein was captured onto a streptavidin coated chip surface at 8° C. in SPR binding buffer (50 mM HEPES, pH 7.4, 150 mM NaCl, 2%[v/v] DMSO) by gradually injecting in a single channel at a constant flow-rate of 2 μL/min until desired capture level was achieved, typically 3000 to 7000 RU (1 RU=1 pg/mm^2).
All binding experiments were performed at 8° C. in SPR binding buffer. To determine binding affinity, compound interaction with immobilized STING protein was analysed using dose-response experiments. Fresh 10 mM DMSO solutions of compound were diluted directly into SPR binding buffer typically to a concentration of 50 μM and then further diluted 2-fold or 3-fold aiming for either a 5- or 7-point concentration series range. Each ligand concentration series was injected at a constant flow rate of 60 μL/min with a 90 second association and a 180 second dissociation time. These were modified for compounds with longer residence times, so that curves could reach steady-state, or so that compound would be fully dissociated before the subsequent injection.
Scrubber 2 (www.biologic.com.au) was utilized for data processing, where signals were referenced against the blank surface (streptavidin+D-biotin) and further corrected for DMSO refractive index change and then “double-referenced” using a buffer-blank injection (Papalia 2006). Responses were fitted to either a 1:1 steady-state affinity model or a 1:1 kinetic model (that included a mass-transport component), available within Scrubber.

[2] = target: WT human STING isoform (THP-1-Dual KI-hSTING-R232 cells) (Homo sapiens (Human), UniProt Q86WV6, H232R); assay: THP-1-Dual KI-hSTING-R232 reporter cell line assay; assay type: cell-based; conditions: 24 h incubation, QUANTI-Luc luminescence
Chain of WT human STING isoform (THP-1-Dual KI-hSTING-R232 cells) (Q86WV6 whole entry H232R, canonical isoform): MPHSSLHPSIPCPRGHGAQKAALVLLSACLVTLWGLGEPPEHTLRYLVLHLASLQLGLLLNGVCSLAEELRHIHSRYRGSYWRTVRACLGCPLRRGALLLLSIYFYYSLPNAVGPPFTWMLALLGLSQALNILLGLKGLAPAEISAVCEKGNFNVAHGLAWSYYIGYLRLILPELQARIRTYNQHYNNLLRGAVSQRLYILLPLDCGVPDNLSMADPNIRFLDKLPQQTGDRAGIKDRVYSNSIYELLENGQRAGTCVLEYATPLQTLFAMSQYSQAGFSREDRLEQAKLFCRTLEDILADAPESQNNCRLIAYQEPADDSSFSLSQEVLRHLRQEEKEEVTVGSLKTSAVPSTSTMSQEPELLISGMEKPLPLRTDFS
How it was run: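 THP-1 STING Lucia ISG cells (HAQ STING) or THP-1-Dual KI-hSTING-R232 cells (WT STING) treated 24 h at 37 °C with 11-point, 2.5-fold compound dilutions. ISG-driven Lucia luciferase read by luminescence, normalised to untreated wells and 40 μM ML RR-S2 CDA positive control; EC50 derived.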

Chain of human STING (WT) (Q86WV6 other isoform, or with tags, fused parts or gaps, stated change not applied): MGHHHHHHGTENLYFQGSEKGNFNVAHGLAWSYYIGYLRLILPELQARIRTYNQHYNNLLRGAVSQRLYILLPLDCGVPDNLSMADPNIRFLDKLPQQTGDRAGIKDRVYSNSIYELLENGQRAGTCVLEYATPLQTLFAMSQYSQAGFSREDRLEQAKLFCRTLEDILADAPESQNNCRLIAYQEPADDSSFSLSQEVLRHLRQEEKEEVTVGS

| SMILES | Kd [1] [nM] | EC50 [2] [nM] |
| --- | --- | --- |
| COc1c(C(N)=O)ccc2c1nc(-c1c(F)cc(F)cc1-c1nn[nH]n1)n2CCn1c(-c2c(F)cc(F)cc2-c2nn[nH]n2)nc2c(OC)c(C(N)=O)ccc21 [Example 43, 1,1′-(Ethane-1,2-diyl)bis(2-(2,4-difluoro-6-(2H-tetrazol-5-yl)phenyl)-4-methoxy-1H-benzo[d]imidazole-5-carboxamide)] | 1790 | 440 |
| COc1c(C(N)=O)ccc2c1nc(-c1c(F)cc(F)cc1-c1n[nH]c(=O)o1)n2CCn1c(-c2c(F)cc(F)cc2-c2n[nH]c(=O)o2)nc2c(OC)c(C(N)=O)ccc21 [Example 44, 1,1′-(Ethane-1,2-diyl)bis(2-(2,4-difluoro-6-(5-oxo-4,5-dihydro-1,3,4-oxadiazol-2-yl)phenyl)-4-methoxy-1H-benzo[d]imidazole-5-carboxamide)] | 11100 | 380 |
| COc1c(C(N)=O)ccc2c1nc(-c1c(F)cc(Cl)cc1Br)n2CCn1c(-c2c(F)cc(Cl)cc2Br)nc2c(OC)c(C(N)=O)ccc21 [Example 45, 1,1′-(Ethane-1,2-diyl)bis(2-(2-bromo-4-chloro-6-fluorophenyl)-4-methoxy-1H-benzo[d]imidazole-5-carboxamide)] | 29600 | 3250 |
| COc1c(C(N)=O)ccc2c1nc(-c1c(F)cc(Cl)cc1-c1nn[nH]n1)n2CCn1c(-c2c(F)cc(Cl)cc2-c2nn[nH]n2)nc2c(OC)c(C(N)=O)ccc21 [Example 46, 1,1′-(Ethane-1,2-diyl)bis(2-(4-chloro-2-fluoro-6-(2H-tetrazol-5-yl)phenyl)-4-methoxy-1H-benzo[d]imidazole-5-carboxamide)] | 413 | 195 |
| COc1c(C(N)=O)ccc2c1nc(-c1c(F)cccc1-c1nn[nH]n1)n2CCn1c(-c2c(F)cccc2-c2nn[nH]n2)nc2c(OC)c(C(N)=O)ccc21 [Example 48, 1,1′-(Ethane-1,2-diyl)bis(2-(2-fluoro-6-(2H-tetrazol-5-yl)phenyl)-4-methoxy-1H-benzo[d]imidazole-5-carboxamide)] | 512 | 269 |
| COc1c(C(N)=O)ccc2c1nc(-c1c(F)cccc1-c1n[nH]c(=O)o1)n2CCn1c(-c2c(F)cccc2-c2n[nH]c(=O)o2)nc2c(OC)c(C(N)=O)ccc21 [Example 49, 1,1′-(Ethane-1,2-diyl)bis(2-(2-fluoro-6-(5-oxo-4,5-dihydro-1,3,4-oxadiazol-2-yl)phenyl)-4-methoxy-1H-benzo[d]imidazole-5-carboxamide)] | 755 | 191 |
| COc1c(C(N)=O)ccc2c1nc(-c1c(F)cc(Cl)cc1-c1n[nH]c(=O)o1)n2CCn1c(-c2c(F)cc(Cl)cc2-c2n[nH]c(=O)o2)nc2c(OC)c(C(N)=O)ccc21 [Example 50, 1,1′-(Ethane-1,2-diyl)bis(2-(4-chloro-2-fluoro-6-(5-oxo-4,5-dihydro-1,3,4-oxadiazol-2-yl)phenyl)-4-methoxy-1H-benzo[d]imidazole-5-carboxamide)] | 359 | 31.2 |
